For series [1], the target named is High affinity nerve growth factor receptor (Homo sapiens, UniProt P04629). Put plainly: Inhibition of TRKA (unknown origin).
Series [2] deals with Vascular endothelial growth factor receptor 2 (Homo sapiens, UniProt P35968). In words: Inhibition of KDR (unknown origin).
The target of a further series is CYP3A4 (Homo sapiens, UniProt P08684). Put plainly: Induction of CYP3A4 in human hepatocytes assessed as fold induction at 1 uM using testosterone as substrate preincubated with replacement of fresh medium containing compound every 24 hrs for 72 hrs followed by substrate addition and measured after 1 hr by LC-MS/MS analysis relative to control. Particulars: probe testosterone, time 73 hrs, read-out: FC. It is filed as ADME, cell-based, Hepatocyte.

Series [3] has as its target Tyrosine-protein kinase Lck (Homo sapiens, UniProt P06239). Put plainly: Inhibition of LCK (unknown origin).
For another series, the system named is NIH3T3. Put plainly: Antiproliferative activity against […] NIH3T3 cells expressing MPRIP-NTRK1 assessed as cell growth inhibition incubated for 4 to 7 days by CellTiter-Glo Luminescent Cell Viability Assay. Particulars: Mus musculus. The class given is functional, cell-based. For orientation: ATP-based viability assays read luminescence as a measure of living cells.

The results in this text go back to ChEMBL document CHEMBL5113522, “Discovery of CH7057288 as an Orally Bioavailable, Selective, and Potent pan-TRK Inhibitor” (J Med Chem, 2022).

The structures appear in SMILES notation. pIC50: −log10 of the molar value.

As a reminder, the pIC50 is the IC50 on a negative log10 scale, so that one unit is a factor of ten.

Tyrosine-protein kinase Lck, sequence (P06239 whole entry): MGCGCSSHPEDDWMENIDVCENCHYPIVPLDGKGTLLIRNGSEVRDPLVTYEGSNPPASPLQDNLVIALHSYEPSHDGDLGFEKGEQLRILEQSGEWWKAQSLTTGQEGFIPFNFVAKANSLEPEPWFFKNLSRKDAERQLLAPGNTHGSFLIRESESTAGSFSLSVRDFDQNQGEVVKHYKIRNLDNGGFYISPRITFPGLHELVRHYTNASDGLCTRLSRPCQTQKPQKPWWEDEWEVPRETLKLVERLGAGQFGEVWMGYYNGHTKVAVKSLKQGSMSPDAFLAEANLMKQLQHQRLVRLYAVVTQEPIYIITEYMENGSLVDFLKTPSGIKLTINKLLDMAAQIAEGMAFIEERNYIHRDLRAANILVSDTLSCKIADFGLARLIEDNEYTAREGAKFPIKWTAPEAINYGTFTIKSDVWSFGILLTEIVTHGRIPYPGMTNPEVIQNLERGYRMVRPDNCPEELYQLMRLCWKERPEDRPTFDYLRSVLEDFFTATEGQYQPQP
CYP3A4, sequence (P08684 whole entry): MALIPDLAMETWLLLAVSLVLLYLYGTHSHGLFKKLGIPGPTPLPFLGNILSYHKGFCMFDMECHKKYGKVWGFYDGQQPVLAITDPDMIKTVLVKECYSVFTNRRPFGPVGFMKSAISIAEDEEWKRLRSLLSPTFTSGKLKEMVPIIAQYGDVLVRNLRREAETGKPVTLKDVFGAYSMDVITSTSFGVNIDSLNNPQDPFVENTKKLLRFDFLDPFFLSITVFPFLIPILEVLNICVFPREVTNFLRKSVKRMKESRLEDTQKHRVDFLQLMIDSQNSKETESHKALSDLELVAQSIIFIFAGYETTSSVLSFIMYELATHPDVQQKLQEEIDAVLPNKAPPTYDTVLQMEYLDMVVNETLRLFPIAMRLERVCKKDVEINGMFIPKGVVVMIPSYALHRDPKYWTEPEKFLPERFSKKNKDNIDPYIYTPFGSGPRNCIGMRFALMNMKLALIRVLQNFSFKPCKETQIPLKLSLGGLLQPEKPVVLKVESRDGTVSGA
Vascular endothelial growth factor receptor 2, sequence (P35968 whole entry): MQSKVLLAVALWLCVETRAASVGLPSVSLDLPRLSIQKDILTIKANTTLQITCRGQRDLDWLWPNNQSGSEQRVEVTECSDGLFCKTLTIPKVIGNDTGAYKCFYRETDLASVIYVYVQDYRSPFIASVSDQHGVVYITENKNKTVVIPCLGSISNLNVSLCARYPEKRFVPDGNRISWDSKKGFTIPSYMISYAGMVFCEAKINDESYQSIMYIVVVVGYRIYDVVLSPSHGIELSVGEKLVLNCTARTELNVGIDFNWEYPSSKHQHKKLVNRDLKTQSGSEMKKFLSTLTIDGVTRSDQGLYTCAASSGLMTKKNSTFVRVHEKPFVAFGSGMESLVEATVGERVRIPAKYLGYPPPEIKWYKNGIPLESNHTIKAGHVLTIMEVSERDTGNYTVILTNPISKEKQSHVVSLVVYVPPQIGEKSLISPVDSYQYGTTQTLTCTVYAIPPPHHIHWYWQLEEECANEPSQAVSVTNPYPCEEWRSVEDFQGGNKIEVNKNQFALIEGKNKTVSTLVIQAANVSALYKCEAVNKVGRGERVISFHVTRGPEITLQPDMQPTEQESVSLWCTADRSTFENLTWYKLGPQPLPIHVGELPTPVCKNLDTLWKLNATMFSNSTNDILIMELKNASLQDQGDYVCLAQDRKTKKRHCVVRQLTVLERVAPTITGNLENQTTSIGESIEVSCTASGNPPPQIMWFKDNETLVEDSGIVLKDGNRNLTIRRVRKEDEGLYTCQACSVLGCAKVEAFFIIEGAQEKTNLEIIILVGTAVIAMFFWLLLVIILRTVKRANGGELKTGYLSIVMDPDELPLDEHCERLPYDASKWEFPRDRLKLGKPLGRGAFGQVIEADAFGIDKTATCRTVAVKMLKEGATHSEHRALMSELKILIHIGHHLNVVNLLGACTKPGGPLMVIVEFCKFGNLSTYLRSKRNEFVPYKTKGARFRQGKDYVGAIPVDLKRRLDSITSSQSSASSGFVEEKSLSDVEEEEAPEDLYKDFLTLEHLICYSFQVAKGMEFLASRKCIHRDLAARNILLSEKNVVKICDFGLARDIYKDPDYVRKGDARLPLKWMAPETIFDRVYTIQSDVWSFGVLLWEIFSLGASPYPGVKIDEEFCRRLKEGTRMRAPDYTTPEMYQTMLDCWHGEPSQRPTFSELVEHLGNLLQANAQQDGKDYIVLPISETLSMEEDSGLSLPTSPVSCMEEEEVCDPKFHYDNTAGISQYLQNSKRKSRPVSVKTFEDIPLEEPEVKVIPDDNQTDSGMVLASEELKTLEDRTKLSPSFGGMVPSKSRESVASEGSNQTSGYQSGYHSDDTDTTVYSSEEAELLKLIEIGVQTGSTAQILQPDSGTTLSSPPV
High affinity nerve growth factor receptor, sequence (P04629 whole entry): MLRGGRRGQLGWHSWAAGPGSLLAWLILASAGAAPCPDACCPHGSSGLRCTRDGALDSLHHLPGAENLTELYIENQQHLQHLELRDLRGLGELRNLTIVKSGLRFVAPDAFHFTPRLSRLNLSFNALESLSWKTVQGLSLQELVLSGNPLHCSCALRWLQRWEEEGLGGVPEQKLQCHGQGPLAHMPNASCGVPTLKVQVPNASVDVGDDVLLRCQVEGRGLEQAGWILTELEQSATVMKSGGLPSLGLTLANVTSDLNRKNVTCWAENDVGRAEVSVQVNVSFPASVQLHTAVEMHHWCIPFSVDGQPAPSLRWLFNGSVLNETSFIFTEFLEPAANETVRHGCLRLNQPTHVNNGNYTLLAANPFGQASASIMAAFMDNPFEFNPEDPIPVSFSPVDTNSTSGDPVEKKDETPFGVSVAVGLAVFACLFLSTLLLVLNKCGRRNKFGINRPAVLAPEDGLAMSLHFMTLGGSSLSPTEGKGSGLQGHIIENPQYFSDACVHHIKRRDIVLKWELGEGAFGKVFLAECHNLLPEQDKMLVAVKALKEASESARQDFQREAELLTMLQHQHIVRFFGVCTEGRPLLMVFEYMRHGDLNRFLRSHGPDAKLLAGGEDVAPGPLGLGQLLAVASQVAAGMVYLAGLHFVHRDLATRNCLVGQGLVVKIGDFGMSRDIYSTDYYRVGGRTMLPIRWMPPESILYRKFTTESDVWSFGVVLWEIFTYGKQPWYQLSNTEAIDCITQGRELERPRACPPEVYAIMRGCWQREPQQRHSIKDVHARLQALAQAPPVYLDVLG

In the case of `CC1(C)c2cc(N3CC4(COC4)C3)ccc2C(=O)c2c1oc1cc(C#Cc3cc(OCC4CC4)ccn3)ccc21`, the pIC50 in series [1] is 8.52; in series [2] it was 6.37; in series [3], 7.07; in the series with NIH3T3, 7.16. Besides, on CYP3A4, the fold induction at 1 h, 1 µM came out at 2.6.
In the same order, the values of `CC1(C)c2cc(OCCN3CCCOCC3)ccc2C(=O)c2c1oc1cc(C#Cc3cc(OCC4CC4)ccn3)ccc21` are 8.55, 6.02, 7.02, 7.10 and 6.1.
Take `CCCc1cc(C(=O)NC(C)(C)C)cc(C#Cc2ccc3c4c(oc3c2)C(C)(C)c2cc(NS(C)(=O)=O)ccc2C4=O)n1`: the pIC50 in series [1] is 8.92; in series [2], less than 6.00; in series [3] it was 7.02; in the series on NIH3T3 it was 7.92. For the same molecule, on CYP3A4, the fold induction at 1 h, 1 µM was found to be 0.9.
As for `CC1(C)c2cc(OCCN3CCOCC3)ccc2C(=O)c2c1oc1cc(C#Cc3cc(OCC(F)(F)F)ccn3)ccc21`, the negative logarithm of the IC50 (pIC50) in series [1] was 8.48; in series [2] it was less than 6.00; in series [3], 6.48; in the series on NIH3T3, 7.68. Besides, at CYP3A4, the fold induction at 1 h, 1 µM stood at 6.3.
Take `CC(C)(C)NC(=O)c1ccnc(C#Cc2ccc3c4c(oc3c2)C(C)(C)c2cc(NS(C)(=O)=O)ccc2C4=O)c1`: the pIC50 in series [1] is 9.15; in series [2], 6.22; in series [3], 6.89; in the series with NIH3T3, 7.85. Further, the fold induction at 1 h, 1 µM at CYP3A4 was found to be 4.7.
Take `CC1(C)c2cc(OCCN3CCOCC3)ccc2C(=O)c2c1oc1cc(C#Cc3cc(OCC4(CO)CC4)ccn3)ccc21`: the negative logarithm of the IC50 (pIC50) in series [1] was 8.48; in series [2] it was 6.02; in series [3], 6.43; with NIH3T3, 6.74. For the same molecule, the fold induction at 1 h, 1 µM at CYP3A4 came to 7.9.
On to `Cc1cnc(C#Cc2ccc3c4c(oc3c2)C(C)(C)c2cc(NS(C)(=O)=O)ccc2C4=O)cc1C(=O)NC(C)(C)C`, for which the pIC50 was 8.42 in series [1], less than 6.00 in series [2], 6.12 in series [3] and 7.19 in the series with NIH3T3. The fold induction at 1 h, 1 µM at CYP3A4 stood at 2.6.
In the same order, the values of `CCc1cc(C(=O)NC(C)(C)C)cc(C#Cc2ccc3c4c(oc3c2)C(C)(C)c2cc(NS(C)(=O)=O)ccc2C4=O)n1` are 9.15, less than 6.00, 6.49, 7.92 and 2.8.
Turning to `CC1(C)c2cc(OCCN3C4CCC3COC4)ccc2C(=O)c2c1oc1cc(C#Cc3cc(OCC4CC4)ccn3)ccc21`, the pIC50 in series [1] was 7.74; in series [2] it was less than 6.00; in series [3], 6.77; in the series with NIH3T3, 6.74. Further, the fold induction at 1 h, 1 µM at CYP3A4 amounted to 6.7.
For `CC1(C)c2cc(OCCN3CCOCC3)ccc2C(=O)c2c1oc1cc(C#Cc3cc(C(=O)NC4CC4)ccn3)ccc21`, the pIC50 in series [1] was 8.89; in series [2] it was less than 6.00; in series [3], 6.74; in the series on NIH3T3 it was 7.52. For the same molecule, on CYP3A4, the fold induction at 1 h, 1 µM came out at 12.
As for `CC1(C)NC(=O)N(CCOc2ccc3c(c2)C(C)(C)c2oc4cc(C#Cc5cc(OCC6CC6)ccn5)ccc4c2C3=O)C1=O`, the negative logarithm of the IC50 (pIC50) was 7.89 in series [1], less than 6.00 in series [2], 6.85 in series [3] and 6.82 in the series on NIH3T3. At CYP3A4, the fold induction at 1 h, 1 µM came out at 1.9.
As to `CC1(C)c2cc(N3CCNC(=O)C3)ccc2C(=O)c2c1oc1cc(C#Cc3cc(OCC4CC4)ccn3)ccc21`, the negative logarithm of the IC50 (pIC50) was 8.85 in series [1], 6.54 in series [2], 7.30 in series [3] and 7.80 in the series with NIH3T3. For the same molecule, the fold induction at 1 h, 1 µM on CYP3A4 came out at 4.2.
In the same order, the values of `CC1(C)c2cc(OCCN3CCOCC3)ccc2C(=O)c2c1oc1cc(C#Cc3cc(OCCC4CC4)ccn3)ccc21` are 8.70, 6.31, 6.66, 6.28 and 6.4.
In the same order, the values of `CC1(C)c2cc(OCCN3CCOCC3)ccc2C(=O)c2c1oc1cc(C#Cc3cc(OCC4CCC4)ccn3)ccc21` are 8.57, 6.77, 7.28, 6.68 and 3.1.
`CC1(COc2ccnc(C#Cc3ccc4c5c(oc4c3)C(C)(C)c3cc(OCCN4CCOCC4)ccc3C5=O)c2)CC1`: the pIC50 is 8.70 in series [1], 6.38 in series [2], 6.80 in series [3] and 7.14 in the series with NIH3T3. Further, the fold induction at 1 h, 1 µM at CYP3A4 was found to be 6.1.
`CC1(C)c2cc(OCCN3CC4(COC4)C3)ccc2C(=O)c2c1oc1cc(C#Cc3cc(OCC4CC4)ccn3)ccc21`: the pIC50 is 8.40 in series [1], 6.30 in series [2], 7.66 in series [3] and 7.34 in the series with NIH3T3. The fold induction at 1 h, 1 µM on CYP3A4 is 1.4.
For `CC1(C)c2cc(N3CCOCC3)ccc2C(=O)c2c1oc1cc(C#Cc3cc(OCC4CC4)ccn3)ccc21`, the negative logarithm of the IC50 (pIC50) in series [1] is 8.47; in series [2] it was 6.16; in series [3] it was 6.72; in the series on NIH3T3 it was 7.28. In addition, the fold induction at 1 h, 1 µM on CYP3A4 came out at 5.4.
Take `CC1(C)c2cc(NS(C)(=O)=O)ccc2C(=O)c2c1oc1cc(C#Cc3cc(OCC4CC4)ccn3)ccc21`: the pIC50 is 8.41 in series [1], less than 6.00 in series [2], 6.65 in series [3] and 7.12 with NIH3T3. Besides, the fold induction at 1 h, 1 µM at CYP3A4 worked out at 1.2.
For `CC1(C)c2cc(OCCN3CCNC(=O)C3)ccc2C(=O)c2c1oc1cc(C#Cc3cc(OCC4CC4)ccn3)ccc21`, the pIC50 in series [1] was 8.68; in series [2], 6.38; in series [3], 7.17; with NIH3T3 it was 7.72. Besides, at CYP3A4, the fold induction at 1 h, 1 µM turned out to be 5.2.
In the same order, the values of `CC1(C)c2cc(NS(C)(=O)=O)ccc2C(=O)c2c1oc1cc(C#Cc3cc(C(=O)NC4CC4)ccn3)ccc21` are 8.62, less than 6.00, 6.84, 7.08 and 2.8.
In the same order, the values of `COCCOc1ccnc(C#Cc2ccc3c4c(oc3c2)C(C)(C)c2cc(OCCN3CCOCC3)ccc2C4=O)c1` are 7.82, less than 6.00, 6.09, 6.89 and 6.3.
In the same order, the values of `Cc1c(C(=O)NC(C)(C)C)ccnc1C#Cc1ccc2c3c(oc2c1)C(C)(C)c1cc(NS(C)(=O)=O)ccc1C3=O` are 8.42, less than 6.00, 6.52, 7.35 and 4.1.
Molecule `CC1(C)c2cc(OCCN3CCOCC3)ccc2C(=O)c2c1oc1cc(C#Cc3cncc(OCC4CC4)c3)ccc21` had a negative logarithm of the IC50 (pIC50) in series [1] of 6.80.
Take `CC1(C)c2cc(NS(C)(=O)=O)ccc2C(=O)c2c1oc1cc(C#Cc3cc(OCC(F)(F)F)ccn3)ccc21`: the negative logarithm of the IC50 (pIC50) in series [1] is 8.66; in series [2], 6.00; in series [3] it was 6.80; in the series on NIH3T3 it was 7.17. Further, the fold induction at 1 h, 1 µM at CYP3A4 stood at 3.4.
